Read-outs that look alike come from different tables or passages of the source.
System: PBMC from 30 HC individuals
Assay: ex vivo IFNγ ELISPOT with NTM-specific peptides
Format: cell-based, human
[1] = response frequency among HC donors, NTM-specific peptides (Table 2)
[2] = total spot forming cells, IFNγ ELISPOT, NTM-specific peptides (Table 2)

Substance | Resp Freq [1] | Total SFC [2] | Resp Freq | Total SFC
538 (VEVVSAEALQLPLWG) [Peptide 538] | 3% | 30 SFC | – | –
SQRLVTLSYRLDAAA [Peptide 1471] | 7% | 58 SFC | 7% | 58 SFC
438 (GSVLLVQALLVTSLL) [Peptide 438] | 3% | 25 SFC | – | –
KWETFLTQELPAYLA [Peptide 741] | 13% | 248 SFC | 13% | 248 SFC
861 (MVFATLLPLGVLQLY) [Peptide 861] | 3% | 47 SFC | – | –
1542 (GRVAWNIVTSYLDSA) [Peptide 1542] | 3% | 52 SFC | – | –
1204 (TPGLNLVYAHLNRII) [Peptide 1204] | 3% | 30 SFC | – | –
GSMLWVAALIGEEIF [Peptide 587] | 7% | 68 SFC | 7% | 68 SFC
531 (LDSFQLFPNFVILFW) [Peptide 531] | 3% | 28 SFC | – | –
871 (LVYLVGFKTKVSTLL) [Peptide 871] | 3% | 28 SFC | – | –
205 (TTSLAFLVAFRPGLV) [Peptide 205] | 3% | 45 SFC | – | –
1196 (MVWRAAAAIELGICD) [Peptide 1196] | 3% | 35 SFC | – | –
1077 (GFVTEFLQREVQNFL) [Peptide 1077] | 3% | 22 SFC | – | –
KDVFFYEPIILPEKS [Peptide 752] | 3% | 78 SFC | 3% | 78 SFC
323 (MIEMLAMSDLSLMVK) [Peptide 323] | 3% | 38 SFC | – | –
804 (NSSIVLISLPAIFRG) [Peptide 804] | 3% | 57 SFC | – | –
714 (AFTHFALLANVAEDI) [Peptide 714] | 3% | 35 SFC | – | –
586 (ELVWLGAAMIIGAGS) [Peptide 586] | 3% | 37 SFC | – | –
543 (VIMPWMIFYQQGAVV) [Peptide 543] | 3% | 43 SFC | – | –
537 (VEPVDISNAVLFLAS) [Peptide 537] | 3% | 43 SFC | – | –
ALLYIPLLTRMLMNL [Peptide 777] | 7% | 87 SFC | 7% | 87 SFC

Substance | Resp Freq [1] | Total SFC [2] | Resp Freq | Total SFC
1072 (HIELALYRIAQECLQ) [Peptide 1072] | 3% | 37 SFC | – | –
1255 (GNELWQIALLELWLQ) [Peptide 1255] | 3% | 37 SFC | – | –
718 (LGPTAGLTVASALLV) [Peptide 718] | 3% | 28 SFC | – | –
621 (AKVLGVFLVTEIVML) [Peptide 621] | 3% | 27 SFC | – | –
PKLKQFMSDVVWIEH [Peptide 775] | 7% | 70 SFC | 7% | 70 SFC
RLFPVIRRYALAYHV [Peptide 582] | 10% | 158 SFC | 10% | 158 SFC
1075 (SPEQAYLLLGAAPIE) [Peptide 1075] | 3% | 22 SFC | – | –
1334 (FFDAGLVVFLPIIMT) [Peptide 1334] | 3% | 47 SFC | – | –
ETTRNLIALGTLALI [Peptide 829] | 3% | 93 SFC | 3% | 93 SFC
588 (HLFQVMAFVVMEPPT) [Peptide 588] | 3% | 52 SFC | – | –
1141 (HAEYKQVTVLFADVV) [Peptide 1141] | 3% | 38 SFC | – | –
937 (HLMQSVVMVSFPVEV) [Peptide 937] | 3% | 22 SFC | – | –
540 (VVYAFMSLFVVNVVV) [Peptide 540] | 3% | 25 SFC | – | –
898 (GQRVITLLASANRDE) [Peptide 898] | 3% | 23 SFC | – | –
397 (ALMNQFISLLKASSL) [Peptide 397] | 3% | 40 SFC | – | –
629 (VQFMPLVIAPQLLLC) [Peptide 629] | 3% | 37 SFC | – | –
1474 (MFETMAAFMLVEHAN) [Peptide 1474] | 3% | 23 SFC | – | –
1571 (ADGLVLFNRFLQPDI) [Peptide 1571] | 3% | 48 SFC | – | –
1525 (FFHRGLMLMSFDEHL) [Peptide 1525] | 3% | 25 SFC | – | –
421 (DPAFRQVFAAQFLPD) [Peptide 421] | 3% | 40 SFC | – | –
651 (FSWFAAGMVLAELTV) [Peptide 651] | 3% | 22 SFC | – | –

Substance | Resp Freq [1] | Total SFC [2] | Resp Freq | Total SFC
78 (IVGAALFLASDASSF) [Peptide 78] | 3% | 32 SFC | – | –
DPLIFFRPRVERLFG [Peptide 720] | 10% | 125 SFC | 10% | 125 SFC
400 (MKELLAENLMVMMRD) [Peptide 400] | 3% | 32 SFC | – | –
1285 (PADASIVKLYYSELL) [Peptide 1285] | 3% | 53 SFC | – | –
LMLIWACDLIVAADN [Peptide 1224] | 10% | 97 SFC | 10% | 97 SFC
963 (VLVVFLLPALRDGAP) [Peptide 963] | 3% | 25 SFC | – | –
1350 (LFFLFPLYAMADFST) [Peptide 1350] | 3% | 30 SFC | – | –
953 (FEHSVVNMFLFPSGL) [Peptide 953] | 3% | 25 SFC | – | –
713 (EGELHLFTPEVVFLL) [Peptide 713] | 3% | 30 SFC | – | –
281 (IVAHYILQYATEELR) [Peptide 281] | 3% | 25 SFC | – | –
1132 (FLFTMLQKTLKGNIF) [Peptide 1132] | 3% | 35 SFC | – | –
732 (PLRVAFLIVLIGTTV) [Peptide 732] | 3% | 33 SFC | – | –
1529 (EGIVFALGGALDFSY) [Peptide 1529] | 3% | 23 SFC | – | –
405 (PLVYFIDSMLQVDDL) [Peptide 405] | 3% | 33 SFC | – | –
1393 (ANVRYISGAPQLWVV) [Peptide 1393] | 3% | 42 SFC | – | –
LGVAALLFGFPIFFD [Peptide 391] | 3% | 77 SFC | 3% | 77 SFC
945 (ALIHVLWINAGLSCD) [Peptide 945] | 3% | 23 SFC | – | –
257 (FFHIYGMTVLLNAAL) [Peptide 257] | 3% | 35 SFC | – | –
658 (VRRVLPALMNQFISL) [Peptide 658] | 3% | 32 SFC | – | –
646 (ADAVNFGVAPAFIVY) [Peptide 646] | 3% | 37 SFC | – | –
712 (VVLMIFRPQGLFPAR) [Peptide 712] | 3% | 27 SFC | – | –

Substance | Resp Freq [1] | Total SFC [2] | Resp Freq | Total SFC
760 (AEWVVRTILSLLTVR) [Peptide 760] | 3% | 38 SFC | – | –
175 (LDYFLNLMLRAPFRL) [Peptide 175] | 3% | 32 SFC | – | –
1244 (LIFDGVFDRFPTLRI) [Peptide 1244] | 3% | 35 SFC | – | –
1331 (VEAGMVYVTLPPLFV) [Peptide 1331] | 3% | 58 SFC | – | –
YNVVIYPVTTLRLAM [Peptide 1556] | 3% | 122 SFC | 3% | 122 SFC
1526 (VATVRAASSLVRAPL) [Peptide 1526] | 3% | 27 SFC | – | –
439 (GMVFQSFNLFAHKTI) [Peptide 439] | 3% | 28 SFC | – | –
883 (EWFARILFSLFSTPS) [Peptide 883] | 3% | 28 SFC | – | –
88 (ALVLVSLLTALAAGI) [Peptide 88] | 3% | 28 SFC | – | –
HQGLAFLLADMAAAV [Peptide 8] | 3% | 58 SFC | 3% | 58 SFC
447 (DDRRTLLWLANQRAV) [Peptide 447] | 3% | 53 SFC | – | –
1004 (ARQMLRFLSSPLWRA) [Peptide 1004] | 3% | 27 SFC | – | –
1549 (RILQVFTEAYADVER) [Peptide 1549] | 3% | 48 SFC | – | –
1001 (KGGLRFHPSVYLGIV) [Peptide 1001] | 3% | 37 SFC | – | –
1458 (HFVSTLSATFPEGED) [Peptide 1458] | 3% | 47 SFC | – | –
865 (TPLFMAHYAPFGLLT) [Peptide 865] | 3% | 25 SFC | – | –
GRLIGWLAKVLAEHP [Peptide 1258] | 3% | 60 SFC | 3% | 60 SFC
745 (VFALMGLRQLYFLLG) [Peptide 745] | 3% | 35 SFC | – | –
628 (LGVFPLIVMFLITSI) [Peptide 628] | 3% | 53 SFC | – | –
697 (RSLMFPTLASLIEER) [Peptide 697] | 3% | 25 SFC | – | –
